Laboratory results from US20060134779A1, “Modulation of cell intrinsic strain to control cell modulus, matrix synthesis, secretion, organization, material properties and remodeling of tissue engineered constructs” (priority 2004, published 2006).
Entries after “also recorded” stand apart in the source; their conditions may differ.

Tests used:
[1] = tested on: β-actin; assay: β-actin expression by quantitative RT-PCR in HTIFs; format: cell-based, human; conditions: for reduction of the message of β-actin: 24 h post addition
Protocol: Primary HTIFs were isolated after surgery from discarded human tendon tissue as described previously (Banes et al., J. Ortho Res., 6, 73-82, 1988). HTIFs from passage 2 to 4 were used in this study. HTIFs were allowed to attach and spread for 24 h before addition of 100 pM IL-1β. Medium was refreshed every 24 h. […] Young's modulus of HTIFs was measured by aspirating a cell into the bore of a calibrated micropipette with a calibrated vacuum source. The cell-aspiration process was videotaped for subsequent data analysis to calculate the pipette bore size, the steady state pressure required to aspirate a segment of a cell into the pipette bore and the time constant for aspiration. Cytoskeleton change was monitored by rhodamine-phalloidin staining. The expression levels of β-actin was determined by quantitative RT-PCR. Total RNA was extracted with an RNeasy mini kit (QIAGen), cDNA was synthesized with SuperScriptII (Invitrogen) and quantitative PCR was carried out using 18S rRNA as an internal control (Ambion). The PCR products were separated on 2% agarose gels and pixel intensity of the bands was quantitated in Photoshop.

[2] = tested on: human tendon internal fibroblasts (HTIFs); assay: Young's modulus of HTIFs by micropipette aspiration; format: cell-based; conditions: young and adult patients (FIG. 13)
Protocol: (§1) Primary HTIFs were isolated after surgery from discarded human tendon tissue as described previously (Banes et al., J. Ortho Res., 6, 73-82, 1988). HTIFs from passage 2 to 4 were used in this study. HTIFs were allowed to attach and spread for 24 h before addition of 100 pM IL-1β. Medium was refreshed every 24 h. On day 5, cells were collected for cell modulus measurement and gene expression analysis. Young's modulus of HTIFs was measured by aspirating a cell into the bore of a calibrated micropipette with a calibrated vacuum source. The cell-aspiration process was videotaped for subsequent data analysis to calculate the pipette bore size, the steady state pressure required to aspirate a segment of a cell into the pipette bore and the time constant for aspiration. Cytoskeleton change was monitored by rhodamine-phalloidin staining. The expression levels of β-actin was determined by quantitative RT-PCR. Total RNA was extracted with an RNeasy mini kit (QIAGen), cDNA was synthesized with SuperScriptII (Invitrogen) and quantitative PCR was carried out using 18S rRNA as an internal control (Ambion). The PCR products were separated on 2% agarose gels and pixel intensity of the bands was quantitated in Photoshop.

[3] = tested on: β-actin; assay: Cytoskeleton change by rhodamine-phalloidin staining in HTIFs; format: cell-based, human; conditions: 100 pM IL-1β
Protocol: as §1

[4] = tested on: MMPs 1, 2, 3; assay: Quantitative RT-PCR gene expression in BATs: MMPs; format: cell-based, human; conditions: 100 pM IL-1β, day 5
Protocol: (§2) Primary human tendon internal fibroblasts (HTIFs) were isolated from discarded human tendon tissue as described previously (Banes et al., J. Ortho Res., 6, 73-82, 1988). HTIFs from passage 2 to 4 were used in this study. BATs™ were fabricated at a cell density of 2 million cells/ml collagen gel suspension (Vitrogen). Cells were incubated at 37° C. for 24 h before addition of 100 pM IL-1β and inhibitors. BAT™ images were recorded with a scanner and automated imaging software, ScanFlex™ (Flexcell International Corp.). Medium was refreshed every 24 h. On day 5, BATs™ were collected, total RNA extracted with an RNeasy mini kit (QIAGen), cDNA synthesized with SuperScriptII (Invitrogen) and quantitative PCR carried out using a quantitative PCR kit from Ambion. The PCR products were separated on 2% agarose gels and the bands were quantitated in Photoshop. The elasticity of BATs™ was tested on day 5. BATs™ were subjected to a maximum stretch (20% elongation, 1 Hz for 1 h) and the BAT™ images were recorded for 24 h after stretch.

[5] = tested on: human tendon internal fibroblast (HTIF) populated bioartificial tendons (BATs); assay: Material properties (modulus) of HTIF-populated BATs; format: cell-based
[6] = tested on: human tendon internal fibroblast (HTIF)-populated bioartificial tendons (BATs); assay: Contraction of HTIF-populated BATs (scanner imaging); format: cell-based; conditions: 100 pM IL-1β, 24 h post addition
Protocol: as §2

[7] = tested on: elastin; assay: Quantitative RT-PCR gene expression in BATs: elastin; format: cell-based, human
Protocol: as §2

[8] = tested on: Collagen type I; assay: Quantitative RT-PCR gene expression in BATs: Collagen type I; format: cell-based, human; conditions: 100 pM IL-1β, day 5
Protocol: as §2

[9] = tested on: human tendon internal fibroblast (HTIF)-populated bioartificial tendons (BATs); assay: Elasticity of BATs: length recovery after maximum stretch; format: cell-based; conditions: 100 pM IL-1β
Description: In order to find a better therapeutic method for tendon/ligament repair and/or replacement, several in vitro models for engineered tendon have been developed recently (Awad et al., J. Biomed. Mater Res., 51(2), 233-240, 2000). One of them is a BioArtificial Tendon (BAT™) model system utilizing tenocyte-populated molded collagen gels (Awad et al., J. Biomed. Mater Res., 51(2), 233-240, 2000). This 3D BAT™ system allows the testing of tenocyte responses to drugs, cytokines and mechanical loading but is too weak to replace conventional grafts materials. In an attempt to modulate the material properties of the cell-gel composite, the influence of IL-1β on the elasticity of human tendon internal fibroblast (HTIF)-populated bioartificial tendons (BATs™) was investigated. IL-1β has been reported to increase the expression of matrix metalloproteinases (MMPs) and elastin. It was hypothesized that IL-1 might increase the elasticity of BATs™ by up-regulating the expression of elastin and down-regulating matrix protein (Collagen type I) expression. Gene expression was quantified with quantitative RT-PCR. The elasticity of BATs™ was determined by length recovery after stretch. The influence of IL-1β on the actin cytoskeleton and integrin attachment to matrix in BATs™ also was tested +/−cytochalasin D or GRGDTP, respectively.
as §2, with “BATs™ were fabricated at a cell density of 2 million cells/ml collagen gel suspension (Vitrogen). Cells were incubated at 37° C. for 24 h before addition of 100 pM IL-1β and inhibitors.” left out, “Medium was refreshed every 24 h.” left out, “The elasticity of BATs™ was tested on day 5.” left out

[10] = tested on: gel matrix; assay: Gel matrix contraction in a culture system; format: cell-based
[11] = tested on: cell modulus; conditions: cited from earlier work
[12] = 20% elongation, 1 Hz for 1 h, day 5

Question: For interleukin-1beta [IL-1β], which “reduction of the message of β-actin” value ([1]; 100 pM IL-1β, 2D cultures) is on record?
Answer: more than 50%

Question: What about the “reduction of the message of β-actin” value ([1]; 100 pM IL-1β, 3D cultures) of the same compound?
Answer: more than 50%

Question: What about the “message level of β-actin” value ([1]; 100 pM IL-1β, day 3, 3D cultures) of the same compound?
Answer: returned to normal

Question: And the “expression of β-actin” value ([1]; 2D cultures, days 1 and 3 (FIG. 14A))?
Answer: reduced

Question: What about the “cell modulus of monolayer HTIFs” value [2] of the same compound?
Answer: reduced

Question: What about the “cells with cytoskeletal structure disrupted” value ([3]; 2D cultures) of the same compound?
Answer: about 20%

Question: What about the “protein level of β-actin” value ([3]; 2D cultures, day 3) of the same compound?
Answer: further reduced

Question: And the “protein level of β-actin” value ([3]; 2D cultures, day 5)?
Answer: mostly recovered

Question: And the “increase of intercellular space at the perpendicular direction of BATs” value ([3]; 3D BATs, days 1 and 3)?
Answer: more than 100%

Question: What about the “fluorescence intensity of rhodamine-phalloidin staining compared to control” value ([3]; 3D bioartificial tendons, day 5) of the same compound?
Answer: much lower

Question: And the “protein level of β-actin” value ([3]; rhodamine-phalloidin staining)?
Answer: down regulated

Question: And the “expression of MMPs 1, 2, 3” value [4]?
Answer: up-regulated; also recorded: up-regulation

Question: What about the “modulus of BATs” value [5] of the same compound?
Answer: reduced

Question: What about the “contraction of BATs” value [6] of the same compound?
Answer: reduced

Question: And the expression of elastin ([7]; 100 pM IL-1β, day 5)?
Answer: up-regulated

Question: What about the “expression of Collagen type I” value [8] of the same compound?
Answer: down-regulated

Question: What about the “elasticity of BATs” value ([9]; tested on day 5) of the same compound?
Answer: increased

Question: And the “survival of maximum stretch” value [9, 12]?
Answer: survived

Question: What about the “time for elongated BATs to recover to original length post stretch” value [9, 12] of the same compound?
Answer: 8 h

Question: With `Nc1ncnc2c1ncn2[C@@H]1O[C@H](COP(=O)(O)OP(=O)(O)OP(=O)(O)O)[C@@H](O)[C@H]1O` [ATP, adenosine triphosphate] as the compound, how does the gel matrix contraction [10] read?
Answer: retard

Question: For `C=C1[C@@H](C)[C@H]2[C@H](Cc3ccccc3)NC(=O)[C@]23[C@H](OC(C)=O)/C=C/[C@@](C)(O)C(=O)[C@@H](C)C/C=C/[C@H]3[C@@H]1O` [cytochalasin D], which “decrease of cell modulus” value [11] is on record?
Answer: up to three fold

Question: Which results are given for GRGDTP?
Answer: elastin mRNA level ([7]; 100 μg/ml GRGDTP alone): did not affect; stimulation of elastin mRNA by IL-1 ([7]; 100 μg/ml GRGDTP with 100 pM IL-1β): reduced
